From PubChem BioAssay AID720588 (Broad Institute, 2013)
Several values for one entry are separate records, joined by “and”; a condition that tells them apart may be missing. Identical values can stand only once. Activity calls are given as the source filed them.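 Rule for the calls: active = fitted curve falls past a set limit of signal loss at no more than twice the top dose; inconclusive = flat fit between 30 and 70% signal loss, or poor fit; inactive = signal rise, flat within 30%, or crossing too high.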

System: not listed separately
Test: HEK293T cell cytotoxicity, dose response, cytotoxicity control, CellTiter-Glo luminescence, cherry-pick, set 3 (AID 720588);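 for AC35: potency for luminescence loss meaning cytotoxic compounds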
Details: HEK293T viability, CellTiter-Glo ATP luminescence, 72 h; at 23.5 µM (top of the series)
With `C[C@H](CO)N1C[C@H](C)[C@H](CN(C)Cc2ccccc2)Oc2ccc(NC(=O)CCCCCC(=O)Nc3ccccc3N)cc2CC1=O` the activity change, negative = cytotoxicity was -0.084% (inactive).

Same assay, conditions: HEK293T viability, CellTiter-Glo ATP luminescence, 72 h; at 26 µM (top of the series)
With `CCC(C)Cn1c(O)cc2nn(-c3nc4ccccc4s3)c(=O)c-2c1C` (stereo not given) the activity change, negative = cytotoxicity was 3.58% (inactive).
In the case of `CCN(CC)C(=O)CN1C(=O)C(=O)c2ccccc21`, the activity change, negative = cytotoxicity is reported as -11% (inactive).
For `C#CCOCCOCCOCCNc1nc(N2CCN(C(=O)CCCCCCCCCCNC(=O)Cn3cc(C[C@@H](C)O)nn3)CC2)nc(N2CCN(C(=O)CCCCCCCCCCNC(=O)[C@H](CO)n3cc(CCCSC)nn3)CC2)n1`, the activity change, negative = cytotoxicity was 23.5% (inactive).
For `COc1ccc(NS(=O)(=O)c2cc(NC(=O)CNC(=O)c3cccc(OC)c3)ccc2C)cc1`, the activity change, negative = cytotoxicity was -20.6% (inactive).
With `COc1ccc(Cl)cc1S(=O)(=O)Nc1ccc2c(c1)n(C)c(=O)n2C` the activity change, negative = cytotoxicity was -13.3% (inactive).
For `COc1cccc(Sc2ccccc2/C=N/NC(N)=O)c1`, the activity change, negative = cytotoxicity was -10.9% (inactive).
With `Cc1noc(C)c1NC(=O)Nc1ccc2c(c1)CC(=O)N([C@@H](C)CO)C[C@@H](C)[C@@H](CN(C)Cc1ccc(Cl)c(Cl)c1)O2` the activity change, negative = cytotoxicity was 61.4% (inactive).
In the case of `COc1ccc(/C=C2\SC(=O)N(CCCC(=O)Nc3ccc(C(=O)O)cc3)C2=O)cc1`, the activity change, negative = cytotoxicity is reported as -14.1% (inactive).
For `Cc1ccsc1C(=O)OCC(=O)NCCC1=CCCCC1`, the activity change, negative = cytotoxicity was -24.7% (inactive).
In the case of `Oc1c(Cl)cc(Cl)c2cccnc12`, the activity change, negative = cytotoxicity is reported as -45.5% (inactive).
In the case of `Cc1ccc(-c2ccc3c(c2)O[C@@H](CN(C)C(=O)Nc2ccc(F)cc2)[C@H](C)CN([C@@H](C)CO)S3(=O)=O)cc1`, the activity change, negative = cytotoxicity is reported as 48.8% (inactive).
In the case of `CCc1ccc2oc(C(=O)N3CCN(c4ccccc4OC)CC3)cc(=O)c2c1`, the activity change, negative = cytotoxicity is reported as -13.2% (inactive).
In the case of `COC(=O)COc1ccc(-c2nccc(-c3ccccn3)n2)cc1`, the activity change, negative = cytotoxicity is reported as 19.3% (inactive).
With `CCNC(=O)c1cc2c(c(-c3cccc(-c4cccc(OC)c4)c3)n1)[C@H](CCO)N([S@@](=O)C(C)(C)C)C2` the activity change, negative = cytotoxicity was -17.3% (inactive).
With `Cc1ccc(C(=O)CN2C(=O)c3ccccc3S2(=O)=O)cc1` the activity change, negative = cytotoxicity was -1.54% (inactive).
In the case of `COc1ccc2cc(C(N)=O)/c(=N\NC(=O)c3ccccc3)oc2c1`, the activity change, negative = cytotoxicity is reported as -13.7% (inactive).
For `CCOC(=O)Cc1csc(NC(=S)NC(=O)c2ccc(C)cc2)n1`, the activity change, negative = cytotoxicity was -21.9% (inactive).
For `CC(C)CC(NC(=O)c1cccs1)c1nnc(SCc2ccc(Cl)c(Cl)c2)n1C` (stereo not given), the activity change, negative = cytotoxicity was -6.67% (inactive).
In the case of `O=C1Nc2ccccc2C1=Nc1ccccc1-c1ccccc1`, the activity change, negative = cytotoxicity is reported as -21.1% (inactive).
For `CCN1C/C(=C/c2ccc(OC)c(O)c2)C(=O)/C(=C/c2ccc(OC)c(O)c2)C1`, the activity change, negative = cytotoxicity was -23.5% (inactive).
With `CC(C)NC(=O)N(C)C[C@@H]1Oc2cc(C#Cc3ccc(F)cc3)ccc2S(=O)(=O)N([C@H](C)CO)C[C@H]1C` the activity change, negative = cytotoxicity was -0.81% (inactive).
For `CN1C/C(=C/c2ccsc2)C(=O)/C(=C/c2ccsc2)C1`, the activity change, negative = cytotoxicity was -30% (inactive).
With `CC(C)(C)C(=O)Nc1ccc(N=Nc2ccccc2)cc1` the activity change, negative = cytotoxicity was -5.33% (inactive).
With `CN(C)C(=O)c1cccc(-c2ccc(C3[C@@H]4CN(Cc5nccs5)C[C@H]3N4)cc2)c1` (stereo not given in full) the activity change, negative = cytotoxicity was 51.7% (inactive).
In the case of `CC(=O)N1CCCC(c2cc(C(=O)Nc3ccccc3)no2)C1` (stereo not given), the activity change, negative = cytotoxicity is reported as -1.97% (inactive).
In the case of `COC(=O)Cc1[nH]n(-c2nc3ccccc3s2)c(=O)c1C(C)=Nc1ccc(C)cc1`, the activity change, negative = cytotoxicity is reported as -30% (inactive).
With `C(=N\Nc1ccc2ccccc2n1)/c1ccc2c(c1)OCO2` the activity change, negative = cytotoxicity was -17.5% (inactive).
In the case of `CC(=O)Nc1cccc(-c2ccnc3c2CC(C)(C(=O)NCc2ccc(N(C)C)cc2)O3)c1` (stereo not given), the activity change, negative = cytotoxicity is reported as -10.9% (inactive).
For `COC(=O)C[C@@H]1CC[C@H]2[C@H](COc3ccc(NC(=O)Nc4cc(C)cc(C)c4)cc3C(=O)N2C)O1`, the activity change, negative = cytotoxicity was -2.27% (inactive).
With `CCc1ccc(/C=C2\SC(=S)N(CCCC(=O)NC3=NCCS3)C2=O)cc1` the activity change, negative = cytotoxicity was -17.5% (inactive).
With `CC(=O)ON=C1C=CC(=C(C#N)c2ccccc2)C=C1` the activity change, negative = cytotoxicity was -28.3% (inactive).
In the case of `Cc1c(CC(=O)NCCCC(=O)O)c(=O)oc2cc3c(cc12)CCC(C)(C)O3`, the activity change, negative = cytotoxicity is reported as -63.2% (inactive).
In the case of `COc1cc(/C=N/NS(=O)(=O)c2ccc(C)cc2)ccc1OCc1cccc(C(=O)O)c1`, the activity change, negative = cytotoxicity is reported as 5.87% (inactive).
In the case of `COC(=O)C[C@@H]1CC[C@@H]2[C@H](COc3ccc(NC(=O)Nc4ccc(C#N)cc4)cc3C(=O)N2C)O1`, the activity change, negative = cytotoxicity is reported as 46.8% (inactive).
With `N=c1ccn2c(n1)O[C@H]1[C@H](O)[C@@H](CO)O[C@H]12` the activity change, negative = cytotoxicity was -7.04% (inactive).
With `O=C(O)c1ccc(N/N=C/c2c[nH]c3ccccc23)cc1` the activity change, negative = cytotoxicity was 6.31% (inactive).
For `O=C(CCCN1C(=O)/C(=C/c2ccccc2Cl)SC1=S)NNC(=O)c1ccc(Cl)cc1Cl`, the activity change, negative = cytotoxicity was 12.7% (inactive).
With `O=c1[nH]c(=O)n([C@H]2C[C@H](O)[C@@H](CO)O2)cc1C(F)(F)F` the activity change, negative = cytotoxicity was -10.4% (inactive).
For `C[C@H]1CN([C@@H](C)CO)C(=O)Cc2cc(NC(=O)C3CC3)ccc2O[C@H]1CN(C)S(=O)(=O)c1ccc(Cl)cc1`, the activity change, negative = cytotoxicity was -9.99% (inactive).
In the case of `CN(C)c1ccc2c(c1)[C@@H]1C[C@@H](CC(=O)NCc3ccc(Oc4ccccc4)cc3)O[C@H](CO)[C@@H]1O2`, the activity change, negative = cytotoxicity is reported as -15.8% (inactive).
For `Cc1ccc(C(CC(=O)O)Nc2nc(N3CCOCC3)nc(N3CCOCC3)n2)cc1` (stereo not given), the activity change, negative = cytotoxicity was 25.6% (inactive).
In the case of `c1ccc(-c2ccc([C@H]3[C@H]4CNC[C@@H]3N4Cc3cc(-c4ccccc4)on3)cc2)cc1`, the activity change, negative = cytotoxicity is reported as 26.6% (inactive).
With `N/C(Cc1nc(-c2ccc(F)cc2)cs1)=N\O` the activity change, negative = cytotoxicity was -17.4% (inactive).
For `COc1cccc(CN2CCC2(C)C(=O)Nc2cccc3cccnc23)c1F` (stereo not given), the activity change, negative = cytotoxicity was -6.02% (inactive).

System: HEK293T viability, CellTiter-Glo ATP luminescence, 72 h
Test: as above
Details: not given
For `CO[C@H]1CN(C)C(=O)c2ccc(NC(=O)c3ccc(-c4ccccc4)cc3)cc2OC[C@H](C)NC[C@H]1C`, the AC35 was 8.64 µM.
Molecule `O=C(c1nnsc1S(=O)c1ccc(Cl)cc1)N1CCOCC1` (stereo not given) has an AC35 of 5.6 µM.
In the case of `CC(=O)OC1CC(OC2C(O)CC(OC3C(O)CC(OC4CCC5(C)C(CCC6C5CCC5(C)C(C7=CC(=O)OC7)C(O)CC65O)C4)OC3C)OC2C)OC(C)C1OC1OC(CO)C(O)C(O)C1O` (stereo not given), the AC35 is reported as 0.58 µM.
For `COc1ccc(C=C2CCc3ccccc3C2=O)cc1`, the AC35 was 16.2 µM.
Work on `O=C1Nc2ccccc2C1=Nc1ccc(Br)cc1` yielded an AC35 of 14.1 µM.
`O=C(Nc1ccc(Br)cc1)c1ccc(F)c(S(=O)(=O)N2CCN(c3ccccn3)CC2)c1` showed an AC35 of 8.36 µM.
In the case of `CN(Cc1cnc2nc(N)nc(N)c2n1)c1ccc(C(=O)N[C@@H](CCC(=O)O)C(=O)O)cc1`, the AC35 is reported as 0.0442 µM and 0.0275 µM.
`C/C(=N\NC(=O)c1n[nH]c2c1CCC2)c1cccs1` showed an AC35 of 10.8 µM.
Work on `O=C(Sc1cccc2cccnc12)c1ccccc1Br` yielded an AC35 of 7.7 µM.
With `Cc1cccc(/C=N/Nc2ccc3ccccc3n2)c1` the AC35 was 11.2 µM.
In the case of `NC(Cc1ccc(C(F)(F)F)cc1)c1csc(NC(=O)Nc2ccccc2Cc2ccccc2)n1` (stereo not given), the AC35 is reported as 12.4 µM.
`C(=NNc1ccc2ccccc2n1)c1ccccn1` gave an AC35 of 1.62 µM.
With `O=c1[nH]c(=O)n([C@H]2C[C@H](O)[C@@H](CO)O2)cc1F` the AC35 was 5.28 µM.
`CCCCCCCCn1c2c(c(=N)c3c1CCC3)CCCC2` showed an AC35 of 3.51 µM.
Molecule `Cn1ccc2cc(-c3ccc4ncnc(NCc5cccs5)c4c3)ccc21` has an AC35 of 9.58 µM.
For `C[C@H](CO)N1C[C@H](C)[C@H](CN(C)Cc2ccc(C(=O)Nc3ccccc3N)cc2)Oc2c(cccc2N(C)C)C1=O`, the AC35 was 11.3 µM.
`CN(CCO)c1ccc(/C=N/Nc2nncc3ccccc23)cc1` gave an AC35 of 13 µM.
In the case of `C[C@@H]1CN([C@@H](C)CO)S(=O)(=O)c2ccc(C#CC(C)(C)O)cc2O[C@H]1CN(C)Cc1ccc(-c2ccccc2)cc1`, the AC35 is reported as 6.7 µM.
Work on `C[C@@H]1CN([C@@H](C)CO)C(=O)c2cc(NS(=O)(=O)c3ccc(F)cc3)ccc2O[C@@H]1CN(C)Cc1ccc(C(=O)Nc2ccccc2N)cc1` yielded an AC35 of 7.54 µM.
`COc1ccc(OC)c(-c2nnc3n2N=C(c2ccc(OC)c(OC4CCOC4)c2)CS3)c1` (stereo not given) gave an AC35 of 9.24 µM.
In the case of `C(=N\Nc1nc2ccccc2s1)/c1ccccn1`, the AC35 is reported as 3.56 µM.
`C[C@@H]1CN([C@@H](C)CO)C(=O)Cc2cc(NC(=O)Nc3ccc(C(F)(F)F)cc3)ccc2O[C@@H]1CN(C)Cc1ccc(C(=O)Nc2ccccc2N)cc1` gave an AC35 of 17.4 µM.
`C[C@@H]1O[C@@H](O[C@H]2C[C@@H](O)[C@]3(CO)[C@@H]4C(CC[C@]3(O)C2)[C@@]2(O)CC[C@H](C3COC(=O)C3)[C@@]2(C)C[C@H]4O)[C@H](O)[C@H](O)[C@H]1O` (stereo not given in full) gave an AC35 of 2.43 µM.
With `CC(C)N1C/C(=C/c2cccnc2)C(=O)/C(=C/c2cccnc2)C1` the AC35 was 18.7 µM.
Work on `O=C1NC(=O)N(Cc2ccccc2)C(=O)/C1=C\C=C\c1ccco1` yielded an AC35 of 12.9 µM.
`C[C@]12CCC3C(CCC4=CC(O)CC[C@@]43/C=N/O)C1(O)CCC2C1=CC(=O)OC1` (stereo not given in full) showed an AC35 of 0.694 µM.
`CC1=NN(c2ccccc2)C(=O)/C1=C\C=C\c1ccccc1` showed an AC35 of 19.6 µM.
With `CCOC(=O)[C@]12Cc3ccc(C)cc3[C@H]1N(C1CCCCC1)C(=O)c1ccccc12` the AC35 was 9.24 µM.
In the case of `CN1c2ccc(-c3ccc(C#N)cc3)cc2[C@H]2[C@H](CCN2S(=O)(=O)c2cccc(F)c2)[C@H]1CO`, the AC35 is reported as 13.4 µM.
In the case of `C[C@H]1CN([C@@H](C)CO)C(=O)c2cc(N(C)C)ccc2O[C@H]1CN(C)Cc1ccc(C(=O)Nc2ccccc2N)cc1`, the AC35 is reported as 3.65 µM.
For `C[C@@H]1CN([C@H](C)CO)C(=O)c2cccc(N(C)C)c2O[C@@H]1CN(C)Cc1ccc(C(=O)Nc2ccccc2N)cc1`, the AC35 was 11.7 µM.
In the case of `C[C@@H]1CN([C@H](C)CO)S(=O)(=O)c2ccc(C#CC(C)(C)O)cc2O[C@H]1CN(C)Cc1ccc(-c2ccccc2)cc1`, the AC35 is reported as 7.28 µM.
With `O=C(NC[C@@H]1N[C@@H](CO)[C@H]1c1ccc(C2=CCCCC2)cc1)c1cccc(F)c1` the AC35 was 10.1 µM.
With `C[C@H]1CN([C@@H](C)CO)S(=O)(=O)c2ccc(C#CC(C)(C)O)cc2O[C@@H]1CN(C)Cc1ccc(-c2ccccc2)cc1` the AC35 was 3.6 µM.
Molecule `Oc1c(Cl)cc(Cl)c(Cl)c1Cc1c(O)c(Cl)cc(Cl)c1Cl` has an AC35 of 11.4 µM.
